The values that follow come from US8987195B2 (priority 2012, dated 2015).

By IC50 is commonly meant the concentration that inhibits the measured activity by half. The term EC50 denotes the concentration needed to bring the measured effect to its halfway point.

Test [1] deals with HCV NS3/4A protease genotype 1b (Hepatitis C virus genotype 1b, UniProt P26663). Put plainly: HCV NS3/4A protease time-resolved fluorescence (TRF) assay, Ki against genotype 1b. In kind it is biochemical. The essentials:
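Enzyme 0.2 nM 1b / 0.4 nM A156T / 0.025 nM 3a; 30 min preinc. w/ cpd; 25 nM TRF peptide; 2.5 h RT; ex 340/em 615 time-delayed; 4-param IC50 → Ki = IC50/(1+[S]/KM).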

The test system of another test is HCV genotype 1b replicon. The test is described as follows: HCV replicon assay, genotype 1b replicon EC50. The note with it: Hepatitis C virus, read-out: EC50 [gt-1b]. In kind it is cell-based, Hepatitis C virus. The essentials: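 Readout was replicon RNA copy number, by 32P-probe protection or TaqMan normalized to cellular cyclophilin A RNA, or luciferase activity for luciferase:Neo^r fusion lines. Cells were exposed to serially diluted compound for 24-48 hours without G418, then washed and lysed. EC50 derived from four-parameter fit relative to DMSO.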

The mark [2] stands for this setting: IC50 [gt-1b], NS3/4A protease TRF assay, genotype 1b enzyme 0.2 nM.
The mark [3] stands for this setting: IC50 [gt-1b] (nM), NS3/4A genotype 1b, enzyme 0.2 nM.
The mark [4] stands for this setting: IC50 [gt-1b], NS3/4A protease TRF assay, genotype 1b enzyme 0.2 nM, K+ salt.
Setting [5] is: HCV replicon, genotype 1b, K+ salt.

SMILES strings stand for the structures. Read-outs that look alike come from different tables or passages of the source.

The compound `CCC1(OC(=O)N[C@H]2CCCCC/C=C\[C@@H]3C[C@@]3(C(=O)NS(=O)(=O)C3(C)CC3)NC(=O)[C@@H]3C[C@]4(CCc5c(c(C(F)(F)F)nc6ccc(OC)cc56)O4)CN3C2=O)CC1` [Example 452, 1-ethylcyclopropyl [(2R,6S,12Z,13aS,14aR,16aS)-9′-methoxy-14a-{[(1-methylcyclopropyl)sulfonyl]carbamoyl}-5,16-dioxo-5′-(trifluoromethyl)-1,1′,2′,5,6,7,8,9,10,11,13a,14,14a,15,16,16a-hexadecahydrospiro[cyclopropa[e]pyrrolo[1,2-a][1,4]diazacyclopentadecine-2,3′-pyrano[2,3-c]quinolin]-6-yl]carbamate] gave an IC50 in test [1] (setting [2]) of 0.03 nM. The half-maximal effective concentration (EC50) with HCV genotype 1b replicon (HCV replicon, genotype 1b) came to 2.4 nM.

In turn, `Cc1nc2ccc(F)cc2c2c1O[C@]1(CC2)C[C@H]2C(=O)N[C@]3(C(=O)NS(=O)(=O)C4(C)CC4)C[C@H]3/C=C\CCCCC[C@H](NC(=O)OCC(C)(C)C)C(=O)N2C1` [Example 406, 2,2-dimethylpropyl [(2R,6S,12Z,13aS,14aR,16aS)-9′-fluoro-5′-methyl-14a-{[(1-methylcyclopropyl)sulfonyl]carbamoyl}-5,16-dioxo-1,1′,2′,5,6,7,8,9,10,11,13a,14,14a,15,16,16a-hexadecahydrospiro[cyclopropa[e]pyrrolo[1,2-a][1,4]diazacyclopentadecine-2,3′-pyrano[2,3-c]quinolin]-6-yl]carbamate] registered a half-maximal inhibitory concentration (IC50) in test [1] (setting [2]) of 0.013 nM. Also, the concentration giving a half-maximal response (EC50) in the test on HCV genotype 1b replicon (HCV replicon, genotype 1b) turned out to be 1 nM.

The compound `CCOC(=O)N[C@H]1CCCCC/C=C\[C@@H]2C[C@@]2(C(=O)NS(=O)(=O)C2(C)CC2)NC(=O)[C@@H]2C[C@]3(CCc4c(c(C)nc5ccccc45)O3)CN2C1=O` [Example 115, ethyl [(2R,6S,12Z,13aS,14aR,16aS)-5′-methyl-14a-{[(1-methylcyclopropyl)sulfonyl]carbamoyl}-5,16-dioxo-1,1′,2′,5,6,7,8,9,10,11,13a,14,14a,15,16,16a-hexadecahydrospiro[cyclopropa[e]pyrrolo[1,2-a][1,4]diazacyclopentadecine-2,3′-pyrano[2,3-c]quinolin]-6-yl]carbamate] returned an IC50 in test [1] (setting [3]) of 0.017 nM. Besides, the EC50 in the test on HCV genotype 1b replicon (genotype 1b replicon) worked out at 6.86 nM.

In the case of `COc1ccc2nc(C)c3c(c2c1)[C@H](F)C[C@]1(C[C@H]2C(=O)N[C@]4(C(=O)NS(=O)(=O)C5(C)CC5)C[C@H]4/C=C\CCCCC[C@H](NC(=O)O[C@@H](C)C(C)C)C(=O)N2C1)O3` [Example 357, (2S)-3-methylbutan-2-yl [(1′R,2S,6S,12Z,13aS,14aR,16aS)-1′-fluoro-9′-methoxy-5′-methyl-14a-{[(1-methylcyclopropyl)sulfonyl]carbamoyl}-5,16-dioxo-1,1′,2′,5,6,7,8,9,10,11,13a,14,14a,15,16,16a-hexadecahydrospiro[cyclopropa[e]pyrrolo[1,2-a][1,4]diazacyclopentadecine-2,3′-pyrano[2,3-c]quinolin]-6-yl]carbamate], in test [1] (IC50 [gt-1b] (nM), NS3/4A genotype 1b, enzyme 0.2 nM, K+ salt), the half-inhibitory concentration (IC50) is 0.01 nM. Also, the EC50 in the test on HCV genotype 1b replicon (genotype 1b replicon, K+ salt) came out at 2.91 nM.

For `Cc1nc2ccccc2c2c1O[C@]1(CC2)C[C@H]2C(=O)N[C@]3(C(=O)NS(=O)(=O)C4(C)CC4)C[C@H]3/C=C\CCCCC[C@H](N)C(=O)N2C1` [Example 344, (2R,6S,12Z,13aS,14aR,16aS)-6-amino-5′-methyl-N-[(1-methylcyclopropyl)sulfonyl]-5,16-dioxo-1,1′,2′,6,7,8,9,10,11,13a,14,15,16,16a-tetradecahydrospiro[cyclopropa[e]pyrrolo[1,2-a][1,4]diazacyclopentadecine-2,3′-pyrano[2,3-c]quinoline]-14a(5H)-carboxamide], half-maximal inhibition in test [1] (setting [3]) (IC50) was put at 0.685 nM. In the test on HCV genotype 1b replicon (genotype 1b replicon), the EC50 was 662 nM.

Regarding `CCc1nc2ccc(OCCN3CCOCC3)cc2c2c1O[C@]1(CC2)C[C@H]2C(=O)N[C@]3(C(=O)NS(=O)(=O)C4(C)CC4)C[C@H]3/C=C\CCCCC[C@H](NC(=O)OC(C)(C)C)C(=O)N2C1` [Example 470, tert-butyl {(2R,6S,12Z,13aS,14aR,16aS)-5′-ethyl-14a-{[(1-methylcyclopropyl)sulfonyl]carbamoyl}-9′-[2-(morpholin-4-yl)ethoxy]-5,16-dioxo-1,1′,2′,5,6,7,8,9,10,11,13a,14,14a,15,16,16a-hexadecahydrospiro[cyclopropa[e]pyrrolo[1,2-a][1,4]diazacyclopentadecine-2,3′-pyrano[2,3-c]quinolin]-6-yl}carbamate], in test [1] (setting [2]), the concentration for half-maximal inhibition (IC50) amounted to 0.011 nM. Besides, the EC50 in the test on HCV genotype 1b replicon (HCV replicon, genotype 1b) was 5.74 nM.

In test [1] (setting [3]), `CCc1nc2ccc(OC)cc2c2c1O[C@]1(CC2)C[C@H]2C(=O)N[C@]3(C(=O)NS(=O)(=O)C4(C)CC4)C[C@H]3/C=C\CCCCC[C@H](NC(=O)OCC(C)(C)C)C(=O)N2C1` [Example 338, 2,2-dimethylpropyl [(2R,6S,12Z,13aS,14aR,16aS)-5′-ethyl-9′-methoxy-14a-{[(1-methylcyclopropyl)sulfonyl]carbamoyl}-5,16-dioxo-1,1′,2′,5,6,7,8,9,10,11,13a,14,14a,15,16,16a-hexadecahydrospiro[cyclopropa[e]pyrrolo[1,2-a][1,4]diazacyclopentadecine-2,3′-pyrano[2,3-c]quinolin]-6-yl]carbamate] yielded an IC50 of 0.009 nM. Also, in the test with HCV genotype 1b replicon (genotype 1b replicon), the EC50 was 1.53 nM.

Regarding `Cc1ccnc(N[C@H]2CCCCC/C=C\[C@@H]3C[C@@]3(C(=O)NS(=O)(=O)C3(C)CC3)NC(=O)[C@@H]3C[C@]4(CCc5c(c(C)nc6ccccc56)O4)CN3C2=O)c1` [Example 350, (2R,6S,12Z,13aS,14aR,16aS)-5′-methyl-N-[(1-methylcyclopropyl)sulfonyl]-6-[(4-methylpyridin-2-yl)amino]-5,16-dioxo-1,1′,2′,6,7,8,9,10,11,13a,14,15,16,16a-tetradecahydrospiro[cyclopropa[e]pyrrolo[1,2-a][1,4]diazacyclopentadecine-2,3′-pyrano[2,3-c]quinoline]-14a(5H)-carboxamide], it took 0.035 nM to reach half-maximal inhibition in test [1] (setting [3]) (IC50). Further, the 50% effective concentration (EC50) in the test with HCV genotype 1b replicon (genotype 1b replicon) was 2.84 nM.

`COc1ccc2nc(C(F)F)c3c(c2c1)CC[C@]1(C[C@H]2C(=O)N[C@]4(C(=O)NS(=O)(=O)C5(C)CC5)C[C@H]4/C=C\CCCCC[C@H](NC(=O)OCC(C)C)C(=O)N2C1)O3` [Example 440, 2-methylpropyl [(2R,6S,12Z,13aS,14aR,16aS)-5′-(difluoromethyl)-9′-methoxy-14a-{[(1-methylcyclopropyl)sulfonyl]carbamoyl}-5,16-dioxo-1,1′,2′,5,6,7,8,9,10,11,13a,14,14a,15,16,16a-hexadecahydrospiro[cyclopropa[e]pyrrolo[1,2-a][1,4]diazacyclopentadecine-2,3′-pyrano[2,3-c]quinolin]-6-yl]carbamate]: the IC50 in test [1] (setting [4]) came to 0.016 nM. For the same compound, in the test on HCV genotype 1b replicon (setting [5]), the half-maximal effective concentration (EC50) came out at 1.98 nM.

As to `CC(C)COC(=O)N[C@H]1CCCCC/C=C\[C@@H]2C[C@@]2(C(=O)NS(=O)(=O)C2(C)CC2)NC(=O)[C@@H]2C[C@]3(CCc4c(c(C(F)(F)F)nc5ccc(OCF)cc45)O3)CN2C1=O` [Example 491, 2-methylpropyl [(2R,6S,12Z,13aS,14aR,16aS)-9′-(fluoromethoxy)-14a-{[(1-methylcyclopropyl)sulfonyl]carbamoyl}-5,16-dioxo-5′-(trifluoromethyl)-1,1′,2′,5,6,7,8,9,10,11,13a,14,14a,15,16,16a-hexadecahydrospiro[cyclopropa[e]pyrrolo[1,2-a][1,4]diazacyclopentadecine-2,3′-pyrano[2,3-c]quinolin]-6-yl]carbamate], the half-maximal inhibitory concentration (IC50) in test [1] (setting [4]) came to 0.003 nM. For the same compound, the EC50 with HCV genotype 1b replicon (setting [5]) is 2.53 nM.

`COc1ccc2nc(C)c3c(c2n1)[C@H](F)C[C@]1(C[C@H]2C(=O)N[C@]4(C(=O)NS(=O)(=O)C5(C)CC5)C[C@H]4/C=C\CCCCC[C@H](NC(=O)OCC(C)(C)C)C(=O)N2C1)O3` [Example 377, 2,2-dimethylpropyl [(2S,6S,10′R,12Z,13aS,14aR,16aS)-10′-fluoro-2′-methoxy-6′-methyl-14a-{[(1-methylcyclopropyl)sulfonyl]carbamoyl}-5,16-dioxo-1,5,6,7,8,9,9′,10,10′,11,13a,14,14a,15,16,16a-hexadecahydrospiro[cyclopropa[e]pyrrolo[1,2-a][1,4]diazacyclopentadecine-2,8′-pyrano[2,3-c][1,5]naphthyridin]-6-yl]carbamate]: 0.018 nM corresponded to half-maximal inhibition in test [1] (setting [2]) (IC50). In the test on HCV genotype 1b replicon (HCV replicon, genotype 1b), the EC50 amounted to 2.52 nM.

For the compound `CC(C)NC(=O)N[C@H]1CCCCC/C=C\[C@@H]2C[C@@]2(C(=O)NS(=O)(=O)C2(C)CC2)NC(=O)[C@@H]2C[C@]3(CCc4c(c(-c5cccc(F)c5)nc5ccccc45)O3)CN2C1=O` [Example 85, (2R,6S,12Z,13aS,14aR,16aS)-5′-(3-fluorophenyl)-N-[(1-methylcyclopropyl)sulfonyl]-5,16-dioxo-6-[(propan-2-ylcarbamoyl)amino]-1,1′,2′,6,7,8,9,10,11,13a,14,15,16,16a-tetradecahydrospiro[cyclopropa[e]pyrrolo[1,2-a][1,4]diazacyclopentadecine-2,3′-pyrano[2,3-c]quinoline]-14a(5R)-carboxamide], 0.013 nM corresponded to half-maximal inhibition in test [1] (setting [3]) (IC50). Also, the EC50 in the test with HCV genotype 1b replicon (genotype 1b replicon) stood at 1.31 nM.
